Assay results reported in patent publication US9932300B2, “N,N′-diarylurea compounds and N,N′-diarylthiourea compounds as inhibitors of translation initiation” (President and Fellows of Harvard College, priority 2009, dated 2018).
“And” between values parts separate entries of the source, which are not always exact repeats. Identical values can stand only once.

Tested on: eIF2-GTP-Met-tRNAi ternary complex
Assay: Ternary complex assay (dual luciferase, firefly/renilla ratio) in stable KLN-tTA/pBISA-DL(ATF-4) cells; HTS and hit confirmation
Format: cell-based, mouse
Set-up: Activity 10 uM / Activity 2.5 uM / Activity 5 uM: unit not given here
Settings: confirmed hits of the screen (Table 5); for Activity 2.5 uM: compound at 2.5 uM; for Activity 10 uM: compound at 10 uM; for Activity 5 uM: compound at 5 uM
Text: For assay development, a bi-directional plasmid was designed in which a common promoter/enhancer complex drives the transcription of firefly luciferase (F-luc) ORF fused to the 5′ untranslated region (UTR) of ATF-4, and of the renilla luciferase (R-luc) ORF fused to a 90-nucleotide 5′ UTR derived from the plasmid (FIG. 6A). Because the tetracycline-regulated transactivator ((tTA), required for driving transcription from this vector) is not normally expressed in the mammalian cells, stable KLN cancer cells were constructed that expressed tTA (KLN-tTA).
The KLN-tTA colonies that drove expression of reporter genes from pBISA-DL plasmid were selected by transient transfection and dual luciferase assay. One of these KLN-tTA cell lines was transfected with the pBISA-DL^(ATF-4) expression vector, stable colonies were selected by dual luciferase assay and expanded. To determine if reduced availability of the eIF2*GTP*Met-tRNAi ternary complex increased the translation of firefly luciferase and decreased translation of renilla luciferase, selected KLN-tTA/pBISA-DL^(AFT-4) colonies were treated with thapsigargin (TG) or tunicamycin (TU), two agents known to cause phosphorylation of eIF2α.
This assay was then adapted for high throughput screening in 96 and 384 well plates. This was done by evaluating the cell density, length of exposure to compounds, DMSO tolerance and optimum firefly and renilla substrate. We then challenged these cells with thapsigargin or DMSO. […] Cell-based assays usually have higher variation than homogeneous in vitro assays due to position effect in the plate, and other variables associated with handling of cells and the plates.
Screening was conducted in 384 well white opaque plates (Nalge Nunc), 100 μl volume RPMI+10% fetal bovine serum. Cells were plated at the sub-confluent density of 10,000 cells/well, and allowed to attach for a period of 16-18 hours at 37° C., 5% CO2. Compounds were added as 1 μl of a 1 mM DMSO stock solution for a final screening concentration of 10 μM, using low-volume tips for transfer (Molecular Bioproducts). Cells were then incubated in the presence of compound for an additional sixteen hours, again at 37° C., 5% CO2. Following incubation 70 μl of the culture medium was removed from each well to allow for reagent addition and plates were allowed to equilibrate to room temperature for thirty minutes. Firefly luciferase reporter activity was then read by the addition of thirty microliters of Dual Glo Luciferase reagent (Promega), followed by one hour incubation at room temperature to allow for adequate signal buildup. Luminescence counting was conducted on a Microbeta Trilux using a 1 second read time. Renilla luciferase reporter activity was measured following addition of 30 μl Stop and Glo Luciferase reagent (Promega) and incubation identical to the one carried out for the firefly luciferase one.
Compound scores were interpreted as firefly luciferase activity divided by renilla luciferase activity, normalized to the plate's DMSO control. […] All data analysis was conducted using the BioAssay HTS software package (CambridgeSoft).
102,709 compounds in the NCI Open Chemical Repository were then screened using this HTS assay. […] Initial hits were confirmed by repeating the same dual luciferase assay in 96 well plates. Briefly, 20,000 cells/well were plated in triplicate for each concentration (10, 5 and 2.5 μM) of the compounds.

Compound	Activity 2.5 uM	Activity 10 uM	Activity 5 uM
CNC(=S)N/N=C/c1nccc(-c2ccccc2)c1C [Compound 262421]	24.56	107.79	
C=C(CN1CCCC1)C(=O)c1ccc(OC)cc1.Cl [Compound 603554]	0.35	8.45	
Cn1cc(/C=C/C(=O)c2ccccc2[N+](=O)[O-])c2ccccc21 [Compound 609810]	2.44	4.69	
Cc1ccc2c(c1)sc(-c1ccc(N(C)C)cc1)[n+]2C.[Cl-] [Compound 11235]	4.88 and 7.3		
CCO[C@@H]([CH2][Hg][Cl])[C@](C)([CH2][Hg][Cl])OCC [Compound 21293]	3.16		
Cc1nc(Nc2cccc(Cl)c2)c2cnn(-c3ccc(Cl)cc3)c2n1 [Compound 1626]	0.79	5.31	
CN(C)c1ccc(/C=N/Nc2ccccc2)cc1 [Compound 230415]		3.3005	2.468
CN(C)c1ccc(N=Nc2ccc3ncccc3c2)cc1 [Compound 87323]		6.0905	5.277
Cc1cc(N(CCCl)CCCl)ccc1N=Nc1ccccc1C(=O)[O-].Cc1cc(N(CCCl)CCCl)ccc1N=Nc1ccccc1C(=O)[O-].[Cu+2] [Compound 68292]		18.3	7.2
Cc1cc[n+](C2CCC3(C)C(=CCC4C3CCC3(C)C(C(C)CCCC(C)C)CCC43)C2)cc1.Cc1ccc(S(=O)(=O)[O-])cc1 (stereo not drawn) [Compound 32994]	2.83	6.52	
CCCCCCCC[N+](C)(CCCCCCCC)CCCCCCCC.[Cl-] [Compound 61369]		4.4	3
O=Nc1c(O)ccc2ccccc12.[Fe].[Na+] [Compound 51522]	1.66	10.99	
C(=P(c1ccccc1)(c1ccccc1)c1ccccc1)[P+](c1ccccc1)(c1ccccc1)c1ccccc1.[Br-] [Compound 74740]		4.1	5.6
O=C(COc1ccc(Cl)cc1)Nc1nccs1 [Compound 204716]	2.2	3.01	
CC(=O)Nc1ccc(C(O)/C(=N/N)c2nc3ccc(Cl)cc3[nH]c2=O)cc1 (stereo not drawn) [Compound 647590]	2.31	3.22	
O=C(Nc1cccc(Cl)c1)Nc1cc(C(F)(F)F)ccc1Cl [Compound 104498]		8.4845	6.367
COc1cccc(N=Nc2ccc(N(C)C)cc2)c1 [Compound 108310]	3.62	4.88	
F[B-](F)(F)F.c1ccc([P+](c2ccccc2)(c2ccccc2)c2ccccc2)cc1 [Compound 407396]	1.72	4.74	
CC1=C/C(=C\C=C2/N(C)c3c(C)cccc3C2(C)C)C(=O)c2ncccc21 [Compound 91816]	17.64	29.75	
O=C(OCC1OC(n2cc[n+]([O-])nc2=O)C(OC(=O)c2ccccc2)C1OC(=O)c1ccccc1)c1ccccc1 (stereo not drawn) [Compound 276293]	20.35		
O=C(/C=C/c1ccccc1)OC1CCCCC1 [Compound 71968]		3.5615	2.615

Compound	Activity 2.5 uM	Activity 10 uM	Activity 5 uM
COc1cc(N=Nc2ccccc2)cc(/C=N/NC(=S)Nc2ccccc2)c1[O-].COc1cc(N=Nc2ccccc2)cc(/C=N/NC(=S)Nc2ccccc2)c1[O-].[Cu+2] [Compound 621794]	9.24	6.6	
CCCCCCCCCCCCCCCC[N+]1(C)CC2CCCCC2C1 (stereo not drawn) [Compound 55237]		6.6	3.4
CC(=O)Oc1ccccc1/C=C/NC(=O)OC(C)(C)C [Compound 122241]		5	3.2
CN(C(=[Se])[Se]C(=[Se])N(C)C1CCCCC1)C1CCCCC1 [Compound 369741]	0.96	6.34	
Cc1cc2c(C)c3cccc[n+]3cc2c2ccccc12.[O-][Cl+3]([O-])([O-])[O-] [Compound 93861]		3.171	2.622
S=C(N/N=C/c1ccccn1)Nc1ccc(Cl)cc1 [Compound 670965]	50.7 and 44.32	23.32 and 25.3088	
C(=C\P(c1ccccc1)c1ccccc1)/P(c1ccccc1)c1ccccc1.F[C-](F)C(F)(F)C(F)(F)F.F[P-](F)(F)(F)(F)F.[CH]1[CH][CH][CH][CH]1.[Co+2] [Compound 633995]	14.38	11.56	
F[P-](F)(F)(F)(F)F.[Cl][Co+].c1ccc(P(CCP(CCP(c2ccccc2)c2ccccc2)CCP(c2ccccc2)c2ccccc2)c2ccccc2)cc1 [Compound 634838]	13.01	30.9	
CC(=Nc1ccc(F)cc1)C1C(=O)c2ccccc2C1=O [Compound 343386]		5.4775	4.235
CCN(CC)CCCNc1ncc(C)c2c1c1ccc3c(O)cccc3c1n2C [Compound 653438]	0.755	12.32	
CN(C)c1ccc(N=Nc2ccncc2)cc1 [Compound 170600]	2.21	3.46	
CSc1ncnc2c(C3OC(COC(C)=O)C(OC(C)=O)C3OC(C)=O)[nH]nc12 (stereo not drawn) [Compound 360648]	1.88	3.85	
Ic1ccc(/C=N/Nc2nnc(N/N=C/c3ccc(I)cc3)c3ccccc23)cc1 [Compound 103842]		3.3	2.6
C(=C(\C[P+](c1ccccc1)(c1ccccc1)c1ccccc1)c1ccccc1)/c1ccccc1 [Compound 167334]		12.373	11.387
CN(C)c1ccc(C(O)Cc2ccc3ccccc3n2)cc1 (stereo not drawn) [Compound 240576]		6.2885	5.47
CCC[CH2][Sn]([CH2]CCC)([CH2]CCC)[CH2]C(C)(C)c1ccccc1 [Compound 126650]	0.64	8.04	
C(=Nc1cnc2ccccc2c1)c1ccccn1 [Compound 101544]		3.1185	2.767
O=[N+]([O-])c1cccnc1S(=O)(=O)c1ccccn1 [Compound 327414]		6.977	3.793
COc1ccc2c(c1)c1c3c(ccc4ncn2c43)N(CCO)CCN=1 [Compound 658358]	0.4	20.35	
c1cc(-c2ncc(-c3ccc4c(c3)CCCO4)o2)ccn1 [Compound 665702]	1.79	3.38	
Cc1cccc(/C=N/Nc2ccc3ccccc3n2)n1 [Compound 332423]		5.4265	4.287
